Data taken from article PMC6386767, “Characterization of recombinant fructose-1,6-bisphosphatase gene mutations: evidence of inhibition/activation of FBPase protein by gene mutation” (Bioscience Reports, 2019).
Changes are numbered by the printed parent chain.

Tests used:
Assay type in all cases: binding
pig kidney FBPase WT = biological target: T1, pig kidney FBPase WT (Sus scrofa, UniProt P00636); experiment: Differential scanning fluorimetry, WT enzyme; details: enzyme WT
T1 construct: His6 (C); made in house; host or cells: Escherichia coli BL21 (DE3)
T1 sequence (P00636 1-338): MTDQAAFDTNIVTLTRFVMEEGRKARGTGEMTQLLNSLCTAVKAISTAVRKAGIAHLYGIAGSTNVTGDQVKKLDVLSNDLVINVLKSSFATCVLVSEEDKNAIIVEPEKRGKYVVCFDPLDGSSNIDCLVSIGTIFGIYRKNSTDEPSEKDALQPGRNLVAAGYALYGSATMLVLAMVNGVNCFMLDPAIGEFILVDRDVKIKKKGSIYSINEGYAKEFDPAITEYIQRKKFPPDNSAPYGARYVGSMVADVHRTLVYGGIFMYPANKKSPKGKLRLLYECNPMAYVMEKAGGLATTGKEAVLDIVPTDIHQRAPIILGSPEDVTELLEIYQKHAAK
Method: (§1) Differential scanning fluorimetry (DSF) assays were designed and implemented to run on WT and each mutant for the purpose of determining relative stabilities by melting point, and to detect structural changes in the enzymes upon ligand binding. Thermal shift assays were performed with a Light Cycler 96 System Real-Time PCR machine (Roche) using Sypro-Orange dye (Invitrogen) and thermal ramping (0.25°C per min between 20 and 85°C). […] Data were processed using the Boltzmann equation to generate sigmoidal denaturation curves, and average Tm/ΔTm values were calculated as previously described using GraphPad Prism software package.

pig kidney FBPase M177A = biological target: T2, pig kidney FBPase M177A (Sus scrofa, UniProt P00636, M178A); experiment: Differential scanning fluorimetry, M177A mutant; details: enzyme M177A
T2 construct: His6 (C); made in house; host or cells: Escherichia coli BL21 (DE3)
T2 sequence (P00636 1-338 M178A): T1 sequence (P00636 1-338) with M178A
Method: as §1

pig kidney FBPase Y164A = biological target: T3, pig kidney FBPase Y164A (Sus scrofa, UniProt P00636, Y165A); experiment: Differential scanning fluorimetry, Y164A mutant; details: enzyme Y164A
T3 construct: His6 (C); made in house; host or cells: Escherichia coli BL21 (DE3)
T3 sequence (P00636 1-338 Y165A): T1 sequence (P00636 1-338) with Y165A
Method: as §1

pig kidney FBPase M248D = biological target: T4, pig kidney FBPase M248D (Sus scrofa, UniProt P00636, M249D); experiment: Differential scanning fluorimetry, M248D mutant; details: enzyme M248D
T4 construct: His6 (C); made in house; host or cells: Escherichia coli BL21 (DE3)
T4 sequence (P00636 1-338 M249D): T1 sequence (P00636 1-338) with M249D
Method: as §1

pig kidney FBPase L56A = biological target: T5, pig kidney FBPase L56A (Sus scrofa, UniProt P00636, L57A); experiment: Differential scanning fluorimetry, L56A mutant; details: enzyme L56A
T5 construct: His6 (C); made in house; host or cells: Escherichia coli BL21 (DE3)
T5 sequence (P00636 1-338 L57A): T1 sequence (P00636 1-338) with L57A
Method: as §1

melting point of enzyme with AMP (100 µM) (pig kidney FBPase WT; AMP 100 µM)	melting point of enzyme with AMP (100 µM) (pig kidney FBPase M177A; AMP 100 µM)	melting point of enzyme with AMP (100 µM) (pig kidney FBPase Y164A; AMP 100 µM)	melting point of enzyme with AMP (100 µM) (pig kidney FBPase M248D; AMP 100 µM)	melting point of enzyme with AMP (100 µM) (pig kidney FBPase L56A; AMP 100 µM)	melting point of enzyme with Mg^2+ ([…]) (pig kidney FBPase WT; Mg^2+ […])	melting point of enzyme with Mg^2+ ([…]) (pig kidney FBPase M177A; Mg^2+ […])	melting point of enzyme with Mg^2+ ([…]) (pig kidney FBPase Y164A; Mg^2+ […])	melting point of enzyme with Mg^2+ ([…]) (pig kidney FBPase M248D; Mg^2+ […])	melting point of enzyme with Mg^2+ ([…]) (pig kidney FBPase L56A; Mg^2+ […])	Compound
59.0 (± 1.75) °C	54.1 (± 1.25) °C	55.0 (± 2.25) °C	59.0 (± 2.50) °C	57.0 (± 2.75) °C						Nc1ncnc2c1ncn2[C@@H]1O[C@H](COP(=O)(O)O)[C@@H](O)[C@H]1O [AMP]
					50.0 (± 1.25) °C	55.8 (± 1.75) °C	55.2 (± 1.75) °C	65.0 (± 1.75) °C	56.0 (± 2.50) °C	[Mg+2] [Mg^2+, magnesium]
